Assay results reported in patent publication US12569509B2, “Method and composition for preventing and treating viral infections” (priority 2017, dated 2026).
“And” between values parts separate entries of the source, which are not always exact repeats. Equal values may be shown once.

What was measured:
[1] = test system: human PBMC; assay: LPS concentration optimization, cytokine release in human PBMC (Phase 1); format: cell-based; conditions: for IL-2 Mean Concentration in supernatant / IFN-g Mean Concentration in supernatant: Donors 1-3; for IL-2 Mean Concentration in supernatant: LLOQ = 2.387 pg/mL; for IFN-g Mean Concentration in supernatant: LLOQ = 2.872 pg/mL; for IL-1β Mean Concentration in supernatant / IL-6 Mean Concentration in supernatant / TNF-α Mean Concentration in supernatant: individual Donors 1-3
[2] = test system: human PBMC; assay: LPS stimulated cytokine secretion in human PBMC pretreated with compounds (Phase 2); format: cell-based; conditions: LPS alone, 1 ng/mL, 8-hour stimulation; for IL-2 concentration in supernatant: LLOQ = 1.698 pg/mL; for TNF-α concentration in supernatant: LLOQ = 2.018 pg/mL; for IL-1β concentration in supernatant: LLOQ = 2.299 pg/mL; for IFN-g concentration in supernatant: LLOQ = 2.792 pg/mL; for IL-6 concentration in supernatant: LLOQ = 0.831
Text: Results are represented as fold-change relative to LPS treatment alone for each cytokine calculated by means from 3 separate donors.
RPMI medium alone, RPMI supplemented with 0.2% DMSO (to mimic treatment conditions) or LPS stimulation alone were used as controls.
Except for the two negative control conditions, all 3 donors responded to all experimental conditions tested with the secretion of TNF-α, IL-1β, and IL-6 albeit with a high degree of variability.

For Lipopolysaccharide [LPS], the “Secretion of IL-1b, IL-6 and TNF-α” value ([1]; 1 ng/mL LPS, after 8 hours) was “robust secretion”, the “Secretion of IL-2 or IFN-g” value ([1]; 1 ng/mL LPS, after 8 hours) was “No secretion” and the “IL-2 Mean Concentration in supernatant” value ([1]; LPS 1 ng/mL, 8-hour) was “<LLOQ”. The “IFN-g Mean Concentration in supernatant” value ([1]; LPS 1 ng/mL, 8-hour) was “<LLOQ”, the “IL-1β Mean Concentration in supernatant” value ([1]; LPS 1 ng/mL, 8-hour) was 403.43 pg/mL and 575.75 pg/mL and 1756.56 pg/mL (2×) and the “IL-6 Mean Concentration in supernatant” value ([1]; LPS 1 ng/mL, 8-hour) was 64.83 pg/mL and 659.3 pg/mL and 1103.64 pg/mL (2×). The “TNF-α Mean Concentration in supernatant” value ([1]; LPS 1 ng/mL, 8-hour) was 670.9 pg/mL and 817.83 pg/mL and 1149.23 pg/mL (2×), the “IL-2 Mean Concentration in supernatant” value ([1]; LPS 1 ng/mL, 24-hour) was “<LLOQ” and the “IFN-g Mean Concentration in supernatant” value ([1]; LPS 1 ng/mL, 24-hour) was “<LLOQ”. For the same substance, the “IL-1β Mean Concentration in supernatant” value ([1]; LPS 1 ng/mL, 24-hour) was 923.42 pg/mL and 1164.43 pg/mL and 2396.79 pg/mL, the “IL-6 Mean Concentration in supernatant” value ([1]; LPS 1 ng/mL, 24-hour) was 1284.85 pg/mL and 1269.72 pg/mL and 1897.32 pg/mL and the “TNF-α Mean Concentration in supernatant” value ([1]; LPS 1 ng/mL, 24-hour) was 1768.29 pg/mL and 2299.94 pg/mL and 2108.58 pg/mL. For the same substance, the “IL-2 Mean Concentration in supernatant” value ([1]; LPS 10 ng/mL, 8-hour) was “<LLOQ”, the “IFN-g Mean Concentration in supernatant” value ([1]; LPS 10 ng/mL, 8-hour) was “<LLOQ” and the “IL-1β Mean Concentration in supernatant” value ([1]; LPS 10 ng/mL, 8-hour) was 404.91 pg/mL and 879.72 pg/mL and 1768.06 pg/mL. For the same substance, the “IL-6 Mean Concentration in supernatant” value ([1]; LPS 10 ng/mL, 8-hour) was 192.2 pg/mL and 830.13 pg/mL and 1084.03 pg/mL, the “TNF-α Mean Concentration in supernatant” value ([1]; LPS 10 ng/mL, 8-hour) was 912.13 pg/mL and 955.81 pg/mL and 1113.95 pg/mL and the “IL-2 Mean Concentration in supernatant” value ([1]; LPS 10 ng/mL, 24-hour) was “<LLOQ”. For the same substance, the “IFN-g Mean Concentration in supernatant” value ([1]; LPS 10 ng/mL, 24-hour) was “<LLOQ”, the “IL-1β Mean Concentration in supernatant” value ([1]; LPS 10 ng/mL, 24-hour) was 986.68 pg/mL and 1038.39 pg/mL and 2391.98 pg/mL and the “IL-6 Mean Concentration in supernatant” value ([1]; LPS 10 ng/mL, 24-hour) was 1393.01 pg/mL and 1167.49 pg/mL and 2016.76 pg/mL. The “TNF-α Mean Concentration in supernatant” value ([1]; LPS 10 ng/mL, 24-hour) was 2316.87 pg/mL and 1605.58 pg/mL and 2139.91 pg/mL, the “IL-2 Mean Concentration in supernatant” value ([1]; LPS 50 ng/mL, 8-hour) was “<LLOQ” and the “IFN-g Mean Concentration in supernatant” value ([1]; LPS 50 ng/mL, 8-hour) was “<LLOQ”. For the same substance, the “IL-1β Mean Concentration in supernatant” value ([1]; LPS 50 ng/mL, 8-hour) was 327.69 pg/mL and 1002.11 pg/mL and 1751.4 pg/mL, the “IL-6 Mean Concentration in supernatant” value ([1]; LPS 50 ng/mL, 8-hour) was 75.24 pg/mL and 880.71 pg/mL and 1096.09 pg/mL and the “TNF-α Mean Concentration in supernatant” value ([1]; LPS 50 ng/mL, 8-hour) was 511.42 pg/mL and 1143.84 pg/mL and 1051.41 pg/mL. The “IL-2 Mean Concentration in supernatant” value ([1]; LPS 50 ng/mL, 24-hour) was “<LLOQ”, the “IFN-g Mean Concentration in supernatant” value ([1]; LPS 50 ng/mL, 24-hour) was “<LLOQ” and the “IL-1β Mean Concentration in supernatant” value ([1]; LPS 50 ng/mL, 24-hour) was 899.92 pg/mL and 1170.32 pg/mL and 2216.54 pg/mL. For the same substance, the “IL-6 Mean Concentration in supernatant” value ([1]; LPS 50 ng/mL, 24-hour) was 1317.99 pg/mL and 1333.24 pg/mL and 1966.58 pg/mL, the “TNF-α Mean Concentration in supernatant” value ([1]; LPS 50 ng/mL, 24-hour) was 1680.24 pg/mL and 1378.24 pg/mL and 1954.44 pg/mL and the “IL-2 Mean Concentration in supernatant” value ([1]; LPS 100 ng/mL, 8-hour) was “<LLOQ”. The “IFN-g Mean Concentration in supernatant” value ([1]; LPS 100 ng/mL, 8-hour) was “<LLOQ”, the “IL-1β Mean Concentration in supernatant” value ([1]; LPS 100 ng/mL, 8-hour) was 298.82 pg/mL and 873.62 pg/mL and 1222.41 pg/mL and the “IL-6 Mean Concentration in supernatant” value ([1]; LPS 100 ng/mL, 8-hour) was 37.62 pg/mL and 820.5 pg/mL and 817.27 pg/mL. The “TNF-α Mean Concentration in supernatant” value ([1]; LPS 100 ng/mL, 8-hour) was 386.41 pg/mL and 1313.93 pg/mL and 868.83 pg/mL, the “IL-2 Mean Concentration in supernatant” value ([1]; LPS 100 ng/mL, 24-hour) was “<LLOQ” and the “IFN-g Mean Concentration in supernatant” value ([1]; LPS 100 ng/mL, 24-hour) was “<LLOQ”. For the same substance, the “IL-1β Mean Concentration in supernatant” value ([1]; LPS 100 ng/mL, 24-hour) was 913.95 pg/mL and 1182.07 pg/mL and 2282.4 pg/mL, the “IL-6 Mean Concentration in supernatant” value ([1]; LPS 100 ng/mL, 24-hour) was 1390.38 pg/mL and 1243.06 pg/mL and 2083.25 pg/mL and the “TNF-α Mean Concentration in supernatant” value ([1]; LPS 100 ng/mL, 24-hour) was 1792.89 pg/mL and 1332.65 pg/mL and 2343.08 pg/mL. The “IL-2 Mean Concentration in supernatant” value ([1]; LPS 1000 ng/mL, 8-hour) was “<LLOQ”, the “IFN-g Mean Concentration in supernatant” value ([1]; LPS 1000 ng/mL, 8-hour) was “<LLOQ” and the “IL-1β Mean Concentration in supernatant” value ([1]; LPS 1000 ng/mL, 8-hour) was 1008.83 pg/mL and 1979.93 pg/mL and 441.01 pg/mL. The “IL-6 Mean Concentration in supernatant” value ([1]; LPS 1000 ng/mL, 8-hour) was 895.76 pg/mL and 1251.62 pg/mL and 166.25 pg/mL, the “TNF-α Mean Concentration in supernatant” value ([1]; LPS 1000 ng/mL, 8-hour) was 1276.06 pg/mL and 1481.27 pg/mL and 498.68 pg/mL and the “IFN-g Mean Concentration in supernatant” value ([1]; LPS 1000 ng/mL, 24-hour) was “<LLOQ”. For the same substance, the “IL-1β Mean Concentration in supernatant” value ([1]; LPS 1000 ng/mL, 24-hour) was 1145.77 pg/mL and 2192.5 pg/mL and 799.96 pg/mL, the “IL-6 Mean Concentration in supernatant” value ([1]; LPS 1000 ng/mL, 24-hour) was 1519.68 pg/mL and 2426.8 pg/mL and 1363.37 pg/mL and the “TNF-α Mean Concentration in supernatant” value ([1]; LPS 1000 ng/mL, 24-hour) was 2286.74 pg/mL and 3069.72 pg/mL and 1675.83 pg/mL. For the same substance, the “Production of TNF-α, IL-1β, and IL-6” value ([1]; LPS ≥1 ng/mL, 8 and 24 hours, all donors) was “robust production”, the “IL-2 concentration in supernatant” value ([2]; Donor 1) was “<LLOQ” and the “TNF-α concentration in supernatant” value ([2]; Donor 1) was 1417.82 pg/mL. For the same substance, the “IL-1β concentration in supernatant” value ([2]; Donor 1) was 2362.87 pg/mL, the “IFN-g concentration in supernatant” value ([2]; Donor 1) was “<LLOQ” and the “IL-6 concentration in supernatant” value ([2]; Donor 1) was 863.49 pg/mL. For the same substance, the “IL-2 concentration in supernatant” value ([2]; Donor 2) was “<LLOQ”, the “TNF-α concentration in supernatant” value ([2]; Donor 2) was 1375.72 pg/mL and the “IL-1β concentration in supernatant” value ([2]; Donor 2) was 2485.92 pg/mL. For the same substance, the “IFN-g concentration in supernatant” value ([2]; Donor 2) was “<LLOQ”, the “IL-6 concentration in supernatant” value ([2]; Donor 2) was 760.26 pg/mL and the “IL-2 concentration in supernatant” value ([2]; Donor 3) was “<LLOQ”. The “TNF-α concentration in supernatant” value ([2]; Donor 3) was 4449.11 pg/mL, the “IL-1β concentration in supernatant” value ([2]; Donor 3) was 3881.34 pg/mL and the “IFN-g concentration in supernatant” value ([2]; Donor 3) was “<LLOQ”. For the same substance, the “IL-6 concentration in supernatant” value ([2]; Donor 3) was 760.26 pg/mL.
